One assay addresses HIV-1 RT (Human immunodeficiency virus type 1 group M subtype B, UniProt P03366). As to the kind of experiment: Heteropolymer HIV Reverse Transcriptase Assay: Inhibitor IC50 Determination. It counts as biochemical. On the procedure: Heteropolymer HIV Reverse Transcriptase Assay: Inhibitor IC50 Determination
HIV-1 RT assay was carried out in 96-well Millipore MultiScreen MADVNOB50 plates using purified recombinant enzyme and a poly(rA)/oligo(dT)16 template-primer in a total volume of 50 μL. The assay constituents were 50 mM Tris/HCl, 50 mM NaCl, 1 mM EDTA, 6 mM MgCl2, 5 μM dTTP, 0.15 μCi [^3H] dTTP, 5 μg/ml poly (rA) pre annealed to 2.5 μg/ml oligo (dT)16 and a range of inhibitor concentrations in a final concentration of 10% DMSO. Reactions were initiated by adding 4 nM HIV-1 RT and after incubation at 37° C. for 30 min, they were stopped by the addition of 50 μl ice cold 20% TCA and allowed to precipitate at 4° C. for 30 min. The precipitates were collected by applying vacuum to the plate and sequentially washing with 3×200 μl of 10% TCA and 2×200 μl 70% ethanol. Finally, the plates were dried and radioactivity counted in a Packard TopCounter after the addition of 25 μl scintillation fluid per well. IC50's were calculated by plotting % inhibition versus log10 inhibitor concentrations. Representative IC50 data is depicted in TABLE 2.

Assay [1] concerns HXB2-strain of HIV-1 in MT4 cells. The experiment in a line: Antiviral assay: protection of HIV-1-infected MT4 cells from cell death (MTT). It counts as cell-based. On the procedure:
Anti-HIV-1 antiviral activity was assessed using an adaptation of the method of Pauwels et al. (Pauwels et al., J Virol Methods 1988 20:309-321). The method is based on the ability of compounds to protect HIV-1-infected T lymphoblastoid cells (MT4 cells) from cell-death mediated by the infection. The endpoint of the assay was calculated as the concentration of compound at which the cell viability of the culture was preserved by 50% (‘50% inhibitory concentration’, IC50). The cell viability of a culture was determined by the uptake of soluble, yellow 3-[4,5-dimethylthiazol-2-yl]-2,5-diphenyltetrazolium bromide (MTT) and its reduction to a purple insoluble formazan salt. After solubilization, spectrophotometric methods were employed to measure the amount of formazan product.
MT4 cells were prepared to be in logarithmic-phase growth and a total of 2×10^6 cells infected with the HXB2-strain of HIV-1 at a multiplicity of 0.0001 infectious units of virus per cell in a total volume of between 200-500 microliters. The cells were incubated with virus for one hour at 37° C. before removal of virus. The cells are then washed in 0.01 M phosphate buffered saline, pH 7.2 before being resuspensed in culture medium for incubation in culture with serial dilutions of test compound. The culture medium used was RPMI 1640 without phenol red, supplemented with penicillin, streptomycin, L-glutamine and 10% fetal calf serum (GM10).
Test compounds were prepared as 2 mM solutions in dimethyl sulfoxide (DMSO). Four replicate, serial 2-fold dilutions in GM10 were then prepared and 50 microliters amounts placed in 96-well plates over a final nanomolar concentration range of 625-1.22. Fifty microliters GM10 and 3.5×10^4 infected cells were then added to each well. Control cultures containing no cells (blank), uninfected cells (100% viability; 4 replicates) and infected cells without compound (total virus-mediated cell death; 4 replicates) were also prepared. The cultures were then incubated at 37° C. in a humidified atmosphere of 5% CO2 in air for 5 days.
A fresh solution of 5 mg/mL MTT was prepared in 0.01 M phosphate buffered saline, pH 7.2 and 20 microliters added to each culture. The cultures were further incubated as before for 2 hours. They were then mixed by pipetting up and down and 170 microliters of Triton X-100 in acidified isopropanol (10% v/v Triton X-100 in 1:250 mixture of concentrated HCl in isopropanol). When the formazan deposit was fully solubilized by further mixing, the absorbance (OD) of the cultures was measured at 540 nm and 690 nm wavelength (690 nm readings were used as blanks for artifacts between wells). The percent protection for each treated culture was then calculated from the equation: […]
The IC50 can be obtained from graph plots of percent protection versus log10 drug concentration.

[2] abbreviates: purified recombinant enzyme, poly(rA)/oligo(dT)16 template-primer, read-out: Polymerase Inhibition IC50.
The mark [3] stands for this setting: Human immunodeficiency virus 1, HXB2, wild type virus, MT4 cells, 10% fetal calf serum, read-out: IC50 Antiviral wt:fbs:10%.
Setting [4] is: Human immunodeficiency virus 1, HXB2, MT4, read-out: IC50 Antiviral wt:fbs:10%.

Read-outs that look alike come from different tables or passages of the source.

Turning to `C=Cc1c(Oc2cc(Cl)cc(C#N)c2)c(CC)c[nH]c1=O` [II-3, 3-Chloro-5-(5-ethyl-2-oxo-3-vinyl-1,2-dihydro-pyridin-4-yloxy)-benzonitrile], the figures for the IC50 (at HIV-1 RT (setting [2]); in assay [1] (setting [3])) were 5.6 nM and 3.3 nM, respectively.

For the compound `N#Cc1cc(Cl)cc(Oc2c(CSCc3ccccc3)c[nH]c(=O)c2Br)c1` [II-18, 3-(5-Benzylsulfanylmethyl-3-bromo-2-oxo-1,2-dihydro-pyridin-4-yloxy)-5-chloro-benzonitrile], the values for the IC50 (against HIV-1 RT; in assay [1] (setting [3])) were 0.4 nM and 4.2 nM, respectively.

Consider `N#Cc1cc(Cl)cc(Oc2c(F)c(CCc3ccncc3)[nH]c(=O)c2Br)c1` [Compound I-20, 3-[3-Bromo-5-fluoro-2-oxo-6-(2-pyridin-4-yl-ethyl)-1,2-dihydro-pyridin-4-yloxy]-5-chloro-benzonitrile], for which the IC50 on HIV-1 RT (setting [2]) is 1.5 nM; in assay [1] (setting [4]), 4.4 nM.

For `CCc1c(C)[nH]c(=O)c(Br)c1Oc1cc(Cl)cc(C#N)c1` [II-6, 3-(3-Bromo-5-ethyl-6-methyl-2-oxo-1,2-dihydro-pyridin-4-yloxy)-5-chloro-benzonitrile], the IC50 on HIV-1 RT (setting [2]) worked out at 7.3 nM; in assay [1] (setting [3]), 2.4 nM.

Turning to `N#Cc1cc(Cl)cc(Oc2cc(CCc3nc4ccccc4o3)[nH]c(=O)c2Cl)c1` [Compound I-19, 3-[6-(2-Benzooxazol-2-yl-ethyl)-3-chloro-2-oxo-1,2-dihydro-pyridin-4-yloxy]-5-chloro-benzonitrile], the figures for the IC50 (on HIV-1 RT (setting [2]); in assay [1] (setting [4])) were 6.3 nM and 6.9 nM, respectively.

A word on the IC50: it is the concentration that inhibits the measured activity by half.

The values above are taken from US20100056535A1, “Inhibitors of HIV-1 reverse transcriptase” (Roche Palo Alto LLC, priority 2008, published 2010).
